According to patent US7642400B2, “Protein kinase C iota” (Mayo Foundation for Medical Education and Research, priority 2004, dated 2010):

Tests used:
[1] = test system: Rac1 activity in A549 cells; test: Rac1 activity assay (affinity isolation of GTP-bound Rac1) in A549 cells; format: cell-based, human
Protocol: Rac 1 Activity Assays: Rac1 activity in A549 and H1299 cell transfectants was assessed by affinity isolation of GTP-bound Rac1 using binding domains of PAK as described previously (Sander et al., J. Cell Biol., 143(5):1385-98 (1998)). Briefly, cells were lysed in lysis buffer (50 mM Tris-HCl pH 7.5, 150 mM NaCl, 20 mM MgCl2, 5 mM EGTA, 10% glycerol, 1% Triton X-100, 1% NP-40, 25 mM NaF, 1 mM phenylmethylsulfonyl fluoride, 1 mM sodium orthovanadate, 10 μg/ml leupeptin, 10 μg/ml aprotinin) at 4° C. for 5 min. Cellular debris was removed by centrifugation at 20,000×g for 5 min, and supernatants were transferred to new tubes containing 20 μl of GST-p21-binding domain of PAK1 (PAK1-PBD) coupled to agarose beads (Upstate). An aliquot of each supernatant was reserved to determine total Rac1 and actin expression by immunoblot analysis. Following a 30-minute incubation at 4° C., the agarose beads were collected by centrifugation and washed three times in wash buffer (50 mM Tris-HCl pH 7.5, 150 mM NaCl, 20 mM MgCl2, 5 mM EGTA, 10% glycerol, 1% Triton X-100, 1% NP-40, 25 mM NaF, 1 mM phenylmethylsulfonyl fluoride, 1 mM sodium orthovanadate, 10 μg/ml leupeptin, 10 μg/ml aprotinin). Bound polypeptides were solubilized by the addition of 30 μl of SDS sample buffer, resolved by SDS-PAGE, and subjected to immunoblot analysis for Rac1. An equivalent aliquot of the total cell lysate was subjected to immunoblot analysis to determine total Rac1 expression.
Rac 1 Activity Assays: A549 cells were incubated with the indicated concentration of ATG for one hour prior to analysis. Rac1 activity in A549 cells was assessed by affinity isolation of GTP-bound Rac1 using binding domains of PAK as described elsewhere (Sander et al., J. Cell Biol., 143:1385-98 (1998)). Briefly, cells were lysed in lysis buffer (50 mM Tris-HCl pH 7.5, 150 mM NaCl, 20 mM MgCl2, 5 mM EGTA, 10% glycerol, 1% Triton X-100, 1% NP-40, 25 mM NaF, 1 mM phenylmethylsulfonyl fluoride, 1 mM sodium orthovanadate, 10 μg/ml leupeptin, and 10 μg/ml aprotinin) at 4° C. for 5 min. […]

[2] = molecular target: T1, interaction of PKCι polypeptides with PAR6 polypeptides (Homo sapiens, UniProt P41743); test: Primary screen: FRET assay of PKCι113-YFP-N1 (PYN) and PAR6125-CFP-C1; conditions: FIG. 18; less binding as concentration increased
T1 construct: amino acids 1-113 or a full-length PKCι polypeptide; 6xHis; made in house
T1 sequence (P41743 10-122): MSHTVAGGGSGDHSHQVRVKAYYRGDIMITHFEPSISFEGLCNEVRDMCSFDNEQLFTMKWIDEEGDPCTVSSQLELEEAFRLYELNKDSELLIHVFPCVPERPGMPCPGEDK
Protocol: A primary screen was performed as follows to identify test compound having the potential to inhibit the interaction of PKCι polypeptides with PAR6 polypeptides. Bacterially expressed PKCι113-YFP-N1 (PYN) was isolated from the soluble fraction of bacterial lysates by affinity purification according to the manufacturer's protocol (B-PER 6×His Purification Kit; Pierce). The purified polypeptide was dialyzed against Tris buffer (50 mM Tris, pH 8.0; 135 mM NaCl; 10% glycerol; 0.002% EDTA) containing 2 M urea. PAR6125-CFP-C1 recombinant polypeptide was isolated from the inclusion body pellets of bacterial lysates using the B-PER reagent (Pierce) according to the manufacturer's protocol. […] Yields were measured by fluorescence in a SpectraMax Gemini microplate reader (Molecular Devices).
To perform the assay, PYN was diluted to 4000 relative fluorescent units/50 μl in Tris buffer plus 1 M urea, and PAR6125-CFP-C1 was diluted to 400 relative fluorescent units/50 μl Tris buffer plus 1 M urea. […] Fluorescence was measured in a SpectraMax Gemini plate reader. Cyan fluorescence was measured at excitation 395 nm, emission 475 nm, and cutoff of 455 nm. Yellow fluorescence was measured at excitation 395 nm, emission 529, and cutoff of 515=n. […]

OC[C@H]1O[C@H]([S-])[C@H](O)[C@@H](O)[C@@H]1O.[Au+] [Aurothioglucose]
Rac1 activity ([1]; A549 cells incubated with ATG for one hour, FIG. 19): decreased Rac1 activity | dose dependence of Rac1 activity ([1]; A549 cells, less Rac1 activity as ATG concentrations increased): dose-dependent effect on Rac1 activity | dose-response in the FRET assay: relative binding of PKCι and PAR6 polypeptides [2]: dose-dependent effect
